Converted amounts (≈) assume the structure as drawn. “And” between values parts separate entries of the source, which are not always exact repeats. Equal values may be shown once.
Key:
[1] = cited from earlier work; for solubilities: unit inferred
adhesion formation [2] = assay: open abdomen for 60 min with gas flow deep in the pelvis, adhesions; type: in vivo; settings: gas flow of 1 l/min deep in the pelvis; control group with a lesion only
adhesion formation [3] = settings: laparoscopic mouse model, background; cited from earlier work
adhesion formation [4] = settings: 60 min pneumoperitoneum, 15 mmHg, humidified, 37° C.; scored one week later; average of four sites; listed as pure CO2
human patients = assay: clinical trials of laparoscopy with conditioned pneumoperitoneum; type: in vivo; settings: first trial, deep endometriosis surgery; trial group also 5 mg dexamethasone and hyalobarrier gel, humidification, cooling 30-32° C.
Experimental: In a further set of trials, human patients were treated operatively by laparoscopy using a pneumoperitoneum with 86% CO2, 10% of N2O and 4% of O2 in combination with full humidification and with a temperature maintained at 31° C. to 32° C. when entering the patient (conditioned group). Furthermore the peritoneal cavity was cooled to 30-32° C. using sprinkling of 2 ml/min of saline at room temperature and rinsing was performed using slightly heparinised saline. A comparison was made with a standard treatment, whereby a pneumoperitoneum with 100% CO2 was used (non-conditioned group). Flow rates were between 3 and 10 liter/min. In a first trial, patients were undergoing deep endometriosis surgery. The trial group received in addition 5 mg of dexamethasone and a hyalobarrier gel at the end of the procedure. […] A number of parameters were monitored such as postoperative pain, time to first flatus and time to first stools, and the CO2 resorbtion during pneumoperitoneum. […] In both trials CO2 resorbtion during surgery, postoperative pain assessed by VAS scales and pain killer intake and time to first flatus and time to first stools were monitored.
In both trials post operative pain was evaluated at 3 hours, 12 hours and daily for 4 days after surgery using a VAS scale (Visual Analog Pain Scale) and using the amount of pain killer intake. […]

Structure (SMILES)	solubility in water [1] [µg/mL]	solubilities [1] [g/L]	adhesions after 60 min open abdomen (adhesion formation [2])	adhesion formation (adhesion formation [3])	quantitative adhesion score (proportion of lesion covered by adhesions) (adhesion formation [4])	total adhesion score (sum of extent, type, tenacity) (adhesion formation [4])	adhesion formation checked by repeat laparoscopy (human patients)
[N-]=[N+]=O [N2O, nitrous oxide]	1500 (≈ 34.1 mM)	1.5	–	–	–	–	–
O=C=O [CO2, carbon dioxide]	1450 (≈ 32.9 mM)	1.45	decrease of these adhesions	increase adhesions five fold	70±10% and 74±9% and 77±9%	30±4 and 31±4 and 32±4	severe adhesions
O=O [Oxygen, oxygen]	39.1 (≈ 1.22 mM)	0.0232	–	–	–	–	–
